US8383547B2 (priority 2005, dated 2013)

Key:
[1] = tested on: dipeptidyl aminopeptidase II (DPP II); settings: stated as known; cited from earlier work
[2] = tested on: Aspergillus parasiticus NRRL2999; assay type: cell-based
[3] = tested on: Aspergillus parasiticus NRRL2999; assay type: cell-based; remark: listed apart in the source
[4] = tested on: aflatoxin-producing microorganism; settings: Non-Patent Literature 3; cited from earlier work

| Compound | DPPII inhibition (known) [1] | Inhibition of growth of aflatoxin-producing microorganism [2] | Inhibition of aflatoxin production [3] | Aflatoxin production inhibitory activity [4] |
| --- | --- | --- | --- | --- |
| dioctatin | inhibition of dipeptidyl aminopeptidase II |  |  |  |
| NCC[C@H](N)C(=O)N1CCCCC1 [Dab-Pip] | strong inhibitor | not observed | neither Orn-Pip nor Dab-Pip inhibited aflatoxin production |  |
| COP(=O)(OC)OC=C(Cl)Cl [dichlorvos] |  |  |  | weak |
| Cc1cccc2sc3nncn3c12 [tricyclazole] |  |  |  | weak |
| NCCCC(N)C(=O)N1CCCCC1 (stereo not drawn) [Orn-Pip] | strong inhibitor | not observed | neither Orn-Pip nor Dab-Pip inhibited aflatoxin production |  |
